Test results taken from patent US20220033407A1, “N-(pyridin-2-ylsulfonyl)cyclopropanecarboxamide Derivatives and their Use in the Treatment of Disease” (NOVARTIS AG, priority 2018, published 2022).

Biological target: T1, delF508-CFTR-HRP (Homo sapiens, UniProt P13569, DEL508-508)
T1 construct: expressed in transfected cells
Assay: Measurement of delF508-CFTR-HRP surface expression in CFBE41o- cells (HRP luminescence);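 as to DelF508-CFTR-HRP Amax %: percent efficacy relative to a reference CFTR corrector compound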
Assay type: cell-based
Conditions: for Emax: CFBE41o-, read-out: DelF508-CFTR-HRP Amax %; for EC50: mean of at least two replicates
Outline: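 EC50 derived by logistic regression of triplicate surface-HRP luminescence, plate-normalized to the lowest-concentration median. Doxycycline (500 ng/mL, 48 h) induced delF508-CFTR-HRP in CFBE41o- cells; compounds then applied 24 h at 37° C, 10 μM top, 3-fold over 10 points.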

T1 sequence (P13569 with tags, fused parts or gaps DEL508-508): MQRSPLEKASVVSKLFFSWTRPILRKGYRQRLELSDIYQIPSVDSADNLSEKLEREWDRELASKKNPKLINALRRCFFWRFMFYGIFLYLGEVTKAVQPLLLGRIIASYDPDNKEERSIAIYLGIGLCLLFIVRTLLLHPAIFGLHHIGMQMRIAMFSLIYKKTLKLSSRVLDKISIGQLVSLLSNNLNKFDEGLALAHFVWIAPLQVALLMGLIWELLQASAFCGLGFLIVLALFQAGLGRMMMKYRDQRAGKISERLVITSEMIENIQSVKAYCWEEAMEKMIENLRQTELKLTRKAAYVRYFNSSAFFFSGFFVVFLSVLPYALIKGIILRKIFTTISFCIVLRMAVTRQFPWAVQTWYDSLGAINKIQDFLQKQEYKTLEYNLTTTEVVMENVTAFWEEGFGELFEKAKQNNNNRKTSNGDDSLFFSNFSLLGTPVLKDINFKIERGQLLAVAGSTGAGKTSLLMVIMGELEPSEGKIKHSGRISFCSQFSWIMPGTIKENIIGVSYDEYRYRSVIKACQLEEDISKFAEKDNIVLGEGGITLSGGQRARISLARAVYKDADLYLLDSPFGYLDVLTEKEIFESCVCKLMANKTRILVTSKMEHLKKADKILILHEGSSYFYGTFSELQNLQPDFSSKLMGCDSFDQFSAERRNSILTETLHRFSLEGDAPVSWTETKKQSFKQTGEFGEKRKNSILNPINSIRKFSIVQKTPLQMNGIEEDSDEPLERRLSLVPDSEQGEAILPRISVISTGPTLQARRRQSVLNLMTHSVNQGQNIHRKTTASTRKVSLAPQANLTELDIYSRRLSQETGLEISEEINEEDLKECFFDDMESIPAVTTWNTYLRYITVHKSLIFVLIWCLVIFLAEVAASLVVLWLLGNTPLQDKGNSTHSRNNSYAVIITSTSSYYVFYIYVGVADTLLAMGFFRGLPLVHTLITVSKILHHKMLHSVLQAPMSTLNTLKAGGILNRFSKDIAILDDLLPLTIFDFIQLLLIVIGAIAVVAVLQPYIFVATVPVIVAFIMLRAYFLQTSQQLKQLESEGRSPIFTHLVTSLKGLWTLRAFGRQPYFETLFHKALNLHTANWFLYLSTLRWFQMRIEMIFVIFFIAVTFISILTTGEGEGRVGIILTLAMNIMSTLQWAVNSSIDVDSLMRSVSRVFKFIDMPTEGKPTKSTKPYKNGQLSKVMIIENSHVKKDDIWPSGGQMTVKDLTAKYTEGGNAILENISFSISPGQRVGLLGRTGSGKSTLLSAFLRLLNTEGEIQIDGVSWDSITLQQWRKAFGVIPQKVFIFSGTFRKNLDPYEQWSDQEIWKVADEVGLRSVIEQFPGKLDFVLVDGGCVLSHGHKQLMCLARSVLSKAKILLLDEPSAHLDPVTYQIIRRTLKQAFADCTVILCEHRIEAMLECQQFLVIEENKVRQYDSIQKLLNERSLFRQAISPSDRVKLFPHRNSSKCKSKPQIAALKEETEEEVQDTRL

Structure (SMILES)	Emax [%]	EC50 [µM]
O=C(NS(=O)(=O)c1cccc(N2CCC(O)(C(F)(F)F)CC2)n1)C1(Oc2cc(Cl)ccc2N2CCC3(CC2)CC3)CC1 [Example 9-31, 1-(5-Chloro-2-(6-azaspiro[2.5]octan-6-yl)phenoxy)-N-((6-(4-hydroxy-4-(trifluoromethyl)piperidin-1-yl)pyridin-2-yl)sulfonyl)cyclopropanecarboxamide]	553	0.41
CC(C)(C)OC1CCN(c2ccc(Cl)cc2OC2(C(=O)NS(=O)(=O)c3cccc(N4CC[C@H](O)C4)n3)CC2)C1 (stereo partly drawn) [Example 9-32, 1-(2-(3-(Tert-butoxy)pyrrolidin-1-yl)-5-chlorophenoxy)-N-((6-((S)-3-hydroxypyrrolidin-1-yl)pyridin-2-yl)sulfonyl)cyclopropanecarboxamide]	485	1.18
CC1(C)CN(c2ccc(Cl)cc2OC2(C(=O)NS(=O)(=O)c3cccc(N4CC[C@H](O)C4)n3)CC2)CC2(CCCC2)O1 [Example 9-33, (S)-1-(5-Chloro-2-(7,7-dimethyl-6-oxa-9-azaspiro[4.5]decan-9-yl)phenoxy)-N-((6-(3-hydroxypyrrolidin-1-yl)pyridin-2-yl)sulfonyl)cyclopropanecarboxamide]	265	2.27
CC(C)(C)C1CCN(c2ccc(Cl)cc2OC2(C(=O)NS(=O)(=O)c3cccc(N4CC[C@H](O)C4)n3)CC2)CC1 [Example 9-34, (S)-1-(2-(4-(Tert-butyl)piperidin-1-yl)-5-chlorophenoxy)-N-((6-(3-hydroxypyrrolidin-1-yl)pyridin-2-yl)sulfonyl)cyclopropanecarboxamide]	152	0.91
CC1(O)CCN(c2cccc(S(=O)(=O)NC(=O)C3(Oc4cc(Cl)ccc4N4CCC(C(C)(C)C)CC4)CC3)n2)CC1 [Example 9-35, 1-(2-(4-(Tert-butyl)piperidin-1-yl)-5-chlorophenoxy)-N-((6-(4-hydroxy-4-methylpiperidin-1-yl)pyridin-2-yl)sulfonyl)cyclopropanecarboxamide]	140	0.34
O=C(NS(=O)(=O)c1cccc(N2CC[C@H](O)C2)n1)C1(Oc2cc(Cl)ccc2N2CC3(CCOCC3)C2)CC1 [Example 9-36, (S)-1-(5-Chloro-2-(7-oxa-2-azaspiro[3.5]nonan-2-yl)phenoxy)-N-((6-(3-hydroxypyrrolidin-1-yl)pyridin-2-yl)sulfonyl)cyclopropanecarboxamide]	52	1.69
O=C(NS(=O)(=O)c1cccc(N2CC[C@H](O)C2)n1)C1(Oc2cc(Cl)ccc2N2CCC(O)(c3ccccn3)CC2)CC1 [Example 9-37, (S)-1-(5-Chloro-2-(4-hydroxy-4-(pyridin-2-yl)piperidin-1-yl)phenoxy)-N-((6-(3-hydroxypyrrolidin-1-yl)pyridin-2-yl)sulfonyl)cyclopropanecarboxamide]	12.6	0.08
CC(C)[C@H](CO)Nc1cccc(S(=O)(=O)NC(=O)C2(Oc3cc(Cl)ccc3N3CCC(C)(C)CC3)CC2)n1 [Example 9-38, (R)-1-(5-Chloro-2-(4,4-dimethylpiperidin-1-yl)phenoxy)-N-((6-((1-hydroxy-3-methylbutan-2-yl)amino)pyridin-2-yl)sulfonyl)cyclopropane-1-carboxamide]	789	1.47
CC1(C)CCN(c2ccc(Cl)cc2OC2(C(=O)NS(=O)(=O)c3cccc(N4CC5CCC(C4)O5)n3)CC2)CC1 [Example 9-40, N-((6-(8-Oxa-3-azabicyclo[3.2.1]octan-3-yl)pyridin-2-yl)sulfonyl)-1-(5-chloro-2-(4,4-dimethylpiperidin-1-yl)phenoxy)cyclopropane-1-carboxamide]	693	1.51
Cc1ccc(N2CCC(C)(C)CC2)c(OC2(C(=O)NS(=O)(=O)c3cccc(N)n3)CC2)c1 [Example 9-44, N-((6-Aminopyridin-2-yl)sulfonyl)-1-(2-(4,4-dimethylpiperidin-1-yl)-5-methylphenoxy)cyclopropane-1-carboxamide]	234	1.55
CC1(C)CCN(c2ccc(Cl)cc2OC2(C(=O)NS(=O)(=O)c3cccc(N)n3)CC2)CC1 [Example 9-45, N-((6-Aminopyridin-2-yl)sulfonyl)-1-(5-chloro-2-(4,4-dimethylpiperidin-1-yl)phenoxy)cyclopropane-1-carboxamide]	189	2.17
CC1(C)CCN(c2ccc(Cl)cc2OC2(C(=O)NS(=O)(=O)c3cccc(N4CC[C@](C)(O)C4)n3)CC2)CC1 [Example 10-1, (S)-1-(5-chloro-2-(4,4-dimethylpiperidin-1-yl)phenoxy)-N-((6-(3-hydroxy-3-methylpyrrolidin-1-yl)pyridin-2-yl)sulfonyl)cyclopropanecarboxamide]	547	0.53
CC1(C)CCN(c2ccc(Cl)cc2OC2(C(=O)NS(=O)(=O)c3cccc(N4CCC(c5ccccn5)CC4)n3)CC2)CC1 [Example 10-3, 1-(5-chloro-2-(4,4-dimethylpiperidin-1-yl)phenoxy)-N-((6-(4-(pyridin-2-yl)piperidin-1-yl)pyridin-2-yl)sulfonyl)cyclopropanecarboxamide]	493	0.6
COCCN(C)c1cccc(S(=O)(=O)NC(=O)C2(Oc3cc(Cl)ccc3N3CCC(C)(C)CC3)CC2)n1 [Example 10-5, 1-(5-chloro-2-(4,4-dimethylpiperidin-1-yl)phenoxy)-N-((6-((2-methoxyethyl)(methyl)amino)pyridin-2-yl)sulfonyl)cyclopropanecarboxamide]	475	1.02
CC1(C)CCCN(c2ccc(Cl)cc2OC2(C(=O)NS(=O)(=O)c3cccc(N4CCC(O)(C(F)(F)F)CC4)n3)CC2)C1 [Example 10-7, 1-(5-chloro-2-(3,3-dimethylpiperidin-1-yl)phenoxy)-N-((6-(4-hydroxy-4-(trifluoromethyl)piperidin-1-yl)pyridin-2-yl)sulfonyl)cyclopropanecarboxamide]	604	0.16
CC1(C)CCN(c2ccc(Cl)cc2OC2(C(=O)NS(=O)(=O)c3cccc(N4CCC5(CC4)OCc4ccccc45)n3)CC2)CC1 [Example 10-8, N-((6-(3H-spiro[isobenzofuran-1,4′-piperidin]-1′-yl)pyridin-2-yl)sulfonyl)-1-(5-chloro-2-(4,4-dimethylpiperidin-1-yl)phenoxy)cyclopropanecarboxamide]	307	0.43
CC1(C)CCN(c2ccc(Cl)cc2OC2(C(=O)NS(=O)(=O)c3cccc(N4CCC(O)(C(F)(F)F)CC4)n3)CC2)CC1 [Example 10-9, 1-(5-chloro-2-(4,4-dimethylpiperidin-1-yl)phenoxy)-N-((6-(4-hydroxy-4-(trifluoromethyl)piperidin-1-yl)pyridin-2-yl)sulfonyl)cyclopropanecarboxamide]	268	0.46
CC1(C)CCN(c2ccc(Cl)cc2OC2(C(=O)NS(=O)(=O)c3cccc(N4CCN5C(=O)CCC5C4)n3)CC2)CC1 (centres unmarked) [Example 10-10, 1-(8-chloro-2-(4,4-dimethylpiperidin-1-yl)phenoxy)-N-((6-(6-oxohexahydropyrrolo[1,2-a]pyrazin-2(1H)-yl)pyridin-2-yl)sulfonyl)cyclopropanecarboxamide]	210	2.62
Cc1cnc(N2CCC(C)(C)CC2)c(OC2(C(=O)NS(=O)(=O)c3cccc(N4CC[C@H](O)C4)n3)CC2)c1 [Example 10-11, (S)-1-((2-(4,4-dimethylpiperidin-1-yl)-5-methylpyridin-3-yl)oxy)-N-((6-(3-hydroxypyrrolidin-1-yl)pyridin-2-yl)sulfonyl)cyclopropanecarboxamide]	181	2.95
